Measurements reported in patent US7217704B2, “LPA receptor agonists and antagonists and methods of use” (The University of Tennessee Research Foundation, priority 2003, dated 2007).
“Also recorded” adds a separate entry of the source. Read-outs that look alike come from different tables or passages of the source.

Assays:
[1] = target: T1, LPA1 (Homo sapiens, UniProt Q92633); settings: RH7777 cells expressing LPA1; previously reported in Virag et al. (2003); cited from earlier work
T1 construct: expressed in transfected cells
T1 sequence (Q92633 whole entry): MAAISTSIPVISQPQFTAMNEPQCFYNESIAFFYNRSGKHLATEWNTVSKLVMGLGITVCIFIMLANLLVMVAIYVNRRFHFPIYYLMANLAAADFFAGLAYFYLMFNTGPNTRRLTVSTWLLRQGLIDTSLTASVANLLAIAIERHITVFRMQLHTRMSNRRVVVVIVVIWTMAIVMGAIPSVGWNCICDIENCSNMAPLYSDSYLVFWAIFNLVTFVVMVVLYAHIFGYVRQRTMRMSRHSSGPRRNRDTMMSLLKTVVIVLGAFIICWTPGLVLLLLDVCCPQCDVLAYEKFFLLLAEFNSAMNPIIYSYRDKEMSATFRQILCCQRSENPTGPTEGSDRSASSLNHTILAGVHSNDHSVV

[2] = target: T2, LPA2 (Homo sapiens, UniProt Q9HBW0); settings: previously reported in Virag et al. (2003), cited from earlier work
T2 construct: expressed in transfected cells
T2 sequence (Q9HBW0 whole entry): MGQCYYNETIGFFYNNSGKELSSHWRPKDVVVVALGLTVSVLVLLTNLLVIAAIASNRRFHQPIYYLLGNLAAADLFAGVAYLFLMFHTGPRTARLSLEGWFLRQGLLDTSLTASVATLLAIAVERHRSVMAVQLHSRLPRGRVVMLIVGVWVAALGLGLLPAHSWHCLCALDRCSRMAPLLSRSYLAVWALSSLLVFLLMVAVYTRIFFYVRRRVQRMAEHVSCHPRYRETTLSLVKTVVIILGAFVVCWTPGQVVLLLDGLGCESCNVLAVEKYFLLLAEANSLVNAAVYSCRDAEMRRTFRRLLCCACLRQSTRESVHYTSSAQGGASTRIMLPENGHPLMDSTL

[3] = target: T3, LPA3 (Homo sapiens, UniProt Q9UBY5); settings: RH7777 cells expressing LPA3; previously reported in Virag et al. (2003); cited from earlier work
T3 construct: expressed in transfected cells
T3 sequence (Q9UBY5 1-353): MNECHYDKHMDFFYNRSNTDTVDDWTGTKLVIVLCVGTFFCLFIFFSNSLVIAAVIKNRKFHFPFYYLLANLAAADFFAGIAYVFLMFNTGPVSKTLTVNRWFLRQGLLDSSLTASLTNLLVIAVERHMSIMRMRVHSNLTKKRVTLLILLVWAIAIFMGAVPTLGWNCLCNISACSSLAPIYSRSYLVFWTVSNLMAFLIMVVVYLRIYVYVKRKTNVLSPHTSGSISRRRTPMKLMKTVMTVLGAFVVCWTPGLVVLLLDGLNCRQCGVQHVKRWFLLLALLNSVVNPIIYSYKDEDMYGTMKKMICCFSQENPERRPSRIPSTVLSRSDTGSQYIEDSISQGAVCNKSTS

[4] = tested on: IEC-6 cells; assay: Camptothecin-induced DNA fragmentation (apoptosis) in IEC-6 cells, ELISA; assay type: cell-based; settings: Camptothecin 20 μM, LPA and FAP12 at 10 μM
Description: The experimental procedure utilized was substantially the same as that reported in Deng et al. (2002) and Deng et al., (2003).
Basically, IEC-6 cells were grown in DMEM medium supplemented with 5% fetal bovine serum, insulin (10 μg/ml), gentamycin sulfate (50 μg/ml), and incubated at 37° C. in a humidified 90% air–10% CO2 atmosphere. Medium was changed every other day. Sub-confluent cells were washed twice and replaced by DMEM without serum the night before experiments.
Damage and IEC-6 cell apoptosis was induced via either γ-irradiation or chemotherapy. 20 Gy single dose of [^137Cs] source γ-irradiation was used in all experiments. […] In some experiments, LPA was added at different times before or after irradiation. Treatment with 20 μM camptothecin of IEC-6 cells induces DNA fragmentation as measured by the ELISA assay at 16 h after treatment. DNA fragmentation was quantified using the Cell Death Detection ELISA kit from Boehringer (Indianapolis, Ind.) according to the instructions of the manufacturer. Samples were run in triplicate. A duplicate of the sample was used to quantify protein concentration using the BCA kit from Pierce (Rockford, Ill.). DNA fragmentation was expressed as absorbance units per μg protein per minute.

[5] = target: T1, LPA1; assay: Ca2+ transients (agonism / inhibition of LPA response) in RH7777 cells stably expressing LPA1; assay type: cell-based; settings: for effect at LPA1 in words: Ca2+ transients
Description: (§1) The culture medium (DMEM containing 10% FBS) was then replaced with modified Krebs solution (120 mM NaCl, 5 mM KCl, 0.62 mM MgSO4, 1.8 mM CaCl2, 10 mM HEPES, 6 mM glucose, pH 7.4) and the cells were serum starved for 6–8 hours (12 h for PC-3 cells). Cells were loaded with Fura-2 AM for 35 minutes in modified Krebs medium. The Fura-2 was removed before loading the plate in the FlexStation instrument by replacing the medium once again with 100 μl modified Krebs medium/well. Plates were incubated for 4 minutes in the instrument to allow for warming to 37° C. Changes in intracellular Ca^2+ concentration were monitored by measuring the ratio of emitted light intensity at 520 nm in response to excitation by 340 nm and 380 nm wavelength lights, respectively. Each well was monitored for 80–120 seconds. […] Time courses were recorded using the SoftMax Pro software (Molecular Devices, Sunnyvale, Calif.). Ca^2+ transients were quantified automatically by calculating the difference between maximum and baseline ratio values for each well.
(§2) Each FAP analog was tested for the ability to induce Ca^2+ transients in RH7777 cells transfected with LPA1-3 receptors (agonism), as well as the ability to inhibit LPAinduced Ca^2+ transients in the same cells (antagonism) (Table 3).

[6] = target: T2, LPA2; assay: Ca2+ transients (agonism / inhibition of LPA response) in RH7777 cells stably expressing LPA2; assay type: cell-based; settings: for effect at LPA2 in words: Ca2+ transients
Description: as §1, §2

[7] = target: T3, LPA3; assay: Ca2+ transients (agonism / inhibition of LPA response) in RH7777 cells stably expressing LPA3; assay type: cell-based; settings: for Ki: read-out: LPA3 (Ki)
Description: as §1, §2

[8] = tested on: PC-3 cells; assay: Ca2+ transients in PC-3 cells endogenously expressing LPA1-3; assay type: cell-based, human; settings: for IC50: read-out: PC-3 IC50
Description: as §1
We tested the FAP analogs in PC-3 cells, which unlike the transfected RH7777 cells endogenously express LPA1-3 receptors.

[9] = tested on: γ-irradiated mice; assay: Crypt survival in small intestine after whole body γ-irradiation; assay type: in vivo; settings: 200 μM into the stomach 2 h prior irradiation, crypts counted 3.5 days after irradiation
Description: The experimental procedure utilized was substantially the same as that reported in Deng et al. (2002).
The whole body irradiation (WBI) protocol has been reviewed and approved by the ACUC Committee of the University of Tennessee Health Sciences Center. ICR strain male mice (Harlan Laboratories, body weight 30–33 g) on a 12 h light/dark cycle and otherwise maintained on a standard laboratory chow ad libitum were starved for 16 h prior to treatment. WBI was done with a 12 Gy or 15 Gy dose using Cs137 source at a dose rate of 1.9 Gy per minute. Groups of four mice received either 250 μl of 1 mM LPA complexed with 100 μM BSA dissolved in Hanks basal salt solution or the BSA vehicle alone 2 h prior to irradiation.
For detection of the apoptotic bodies, mice were euthanized with carbon dioxide inhalation 4 h after irradiation and the small intestine was dissected and fixed in neutral phosphate buffered isotonic 10% formalin. Four ˜3- to 4-mm long segments from the small intestine were embedded in paraffin, 5 μm thick sections were cut and stained with hematoxilin and eosin. The number of surviving crypts was counted 3.5 days after irradiation.

[10] = target: T1, LPA1; settings: original assay, literature; read-out: reported Ki at LPA1; cited from earlier work
[11] = target: T3, LPA3; settings: original assay, literature; read-out: reported Ki at LPA3; cited from earlier work
[12] = target: T4, PPARγ (Homo sapiens, UniProt P37231); assay: PPARγ activation in CV1 cells, PPRE-Acox-Rluc reporter gene assay; settings: 10 μM test compound, 20 h
T4 sequence (P37231 1-505): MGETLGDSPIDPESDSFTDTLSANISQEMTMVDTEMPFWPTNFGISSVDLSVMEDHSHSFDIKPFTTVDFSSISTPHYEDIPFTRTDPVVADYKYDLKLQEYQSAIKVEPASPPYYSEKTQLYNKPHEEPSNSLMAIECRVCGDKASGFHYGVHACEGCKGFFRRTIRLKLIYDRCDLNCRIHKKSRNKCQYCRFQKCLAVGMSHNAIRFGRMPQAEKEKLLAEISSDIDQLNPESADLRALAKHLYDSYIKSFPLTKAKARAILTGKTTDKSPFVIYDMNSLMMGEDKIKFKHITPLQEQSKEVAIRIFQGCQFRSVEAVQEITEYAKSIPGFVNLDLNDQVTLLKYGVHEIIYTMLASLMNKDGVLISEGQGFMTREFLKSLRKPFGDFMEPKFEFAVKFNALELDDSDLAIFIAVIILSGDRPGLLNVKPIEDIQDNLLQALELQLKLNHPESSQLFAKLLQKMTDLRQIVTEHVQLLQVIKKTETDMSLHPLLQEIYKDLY
Description: Comparing the effects with the Rosiglitazone, a known PPARγ agonist, CV1 cells were treated with 1% DMSO or 10 μM of test compound dissolved in DMSO for 20 h. Luciferase and β-galactosidase activities (mean±SEM) were measured in the cell lysate (n=4). *P<0.05 and **P<0.01, significant differences over vehicle control.
The assay of PPARγ activation in CV1 cells was run as reported in Zhang et al. Briefly, CV-1 cells were plated in 96-well plates (5×10^3 cells per well) in Dulbecco's modified Eagle's medium supplemented with 10% fetal bovine serum. […] Samples were run in quadruplicate and the mean±standard errors were calculated. Data are representative of at least two independent transfections. Student's t-test was used for null hypothesis testing and P<0.05 was considered transfection, cells were treated with 1% FBS supplemented OptiMEMI (Invitrogen) containing DMSO or 10 μM test compound dissolved in DMSO for 20 h. Luciferase and β-galactosidase activities were measured with the Steady-Glo® Luciferase Assay significant (in the figures P<0.05 is denoted by * and P<0.01 is **).

[13] = target: T1, LPA1; settings: GTPγS loading assay, HEK293T; read-out: reported Ki at LPA1; cited from earlier work
[14] = target: T2, LPA2; settings: GTPγS loading assay, HEK293T; read-out: reported Ki at LPA2; cited from earlier work
[15] = target: T3, LPA3; settings: GTPγS loading assay, HEK293T; read-out: reported Ki at LPA3; cited from earlier work
[16] = induction of Ca2+ transients, RH7777 cells expressing LPA1, read-out: LPA1 EC50
[17] = inhibition of LPA-induced Ca2+ transients, RH7777 cells expressing LPA1, read-out: LPA1 IC50
[18] = induction of Ca2+ transients, RH7777 cells expressing LPA2, read-out: LPA2 EC50
[19] = inhibition of LPA-induced Ca2+ transients, RH7777 cells expressing LPA2, read-out: LPA2 IC50
[20] = induction of Ca2+ transients, RH7777 cells expressing LPA3, read-out: LPA3 EC50
[21] = inhibition of LPA-induced Ca2+ transients, RH7777 cells expressing LPA3
[22] = inhibition of LPA-induced Ca2+ transients, RH7777 cells expressing LPA3, read-out: LPA3 IC50
[23] = inhibition of LPA-induced Ca2+ transients, PC-3 cells

Row | Compound | EC50 [1] | IC50 ([2]; RH7777 cells expressing LPA2) | EC50 [3] | inhibition of Camptothecin-induced DNA fragmentation in words [4] | EC50 [5, 16] | IC50 [5, 17] | EC50 [6, 18] | IC50 [6, 19] | EC50 [7, 20] | Ki [7, 21] | IC50 [7, 22] | PPARγ activation (PPRE-Acox-Rluc reporter) in words [12] | other results
1 | CCCCCCCCCCOP(=O)(O)O [Compound 2a] | > 30000 nM | > 30000 nM | > 30000 nM | – | – | – | – | – | – | – | – | – | IC50 [1]: > 30000 nM
2 | CCCCCCCCCCCCOP(=O)(O)O [Compound 2b] | > 30000 nM | > 30000 nM | > 30000 nM | inhibited | – | – | – | – | – | – | – | – | LPA2 (Emax) ([2]; relative to LPA 18:1): 50%; IC50 [3]: 128 nM; Ki [3]: 61 nM
3 | CCCCCCCCCCCCCCOP(=O)(O)O [Compound 2c] | > 30000 nM | > 30000 nM | > 30000 nM | – | – | – | – | – | – | – | – | – | EC50 ([2]; RH7777 cells expressing LPA2): > 30000 nM
4 | CCCCCCCCC=CCCCCCCCCOP(O)(O)=S [Compound 8g, Thiophosphoric acid O-octadec-9-enyl ester] | – | – | – | comparable to that of LPA but supersedes it at concentrations above 3 μM; also recorded: dose-dependently inhibit DNA fragmentation | – | – | – | – | – | – | – | – | EC50 [5]: 193 nM; IC50 [5]: > 30000 nM; effect at LPA1 in words ([5]; RH7777 cells expressing LPA1): agonist; Emax ([5]; RH7777, read-out: LPA1 (Emax)): 80%; LPA1 (Emax) ([5]; maximal efficacy of the drug/maximal efficacy of LPA 18:1): 80%; EC50 [6]: 244 nM; IC50 [6]: > 30000 nM; effect at LPA2 in words ([6]; RH7777 cells expressing LPA2): agonist; EC50 [7]: 546 nM; IC50 [7]: > 30000 nM; effect at LPA3 in words ([7]; Ca2+ transients, RH7777 cells expressing LPA3): agonist; effect in PC-3 cells in words ([8]; Ca2+ transients, PC-3 cells): no inhibition of LPA response; Emax ([8]; Homo sapiens, PC-3, read-out: PC-3 (Emax)): 30%; crypt survival in words [9]: enhances crypt survival; crypt survival in words ([9]; listed as FAP 18:1 d9): dose-dependent enhancement of crypt survival; crypt survival in words ([9]; listed as FAP 18:1d9): significantly (P>0.01) enhanced crypt survival; also recorded: present in the jejunum and ileum and exceeded that of LPA; also recorded: dose-dependent crypt survival in the ileum and jejunum
5 | CCCCCCCC(=O)OC[C@H](COP(=O)(O)OP(=O)(O)O)OC(=O)CCCCCCC [DGPP, reference compound] | – | – | – | – | > 30000 nM | 5500 nM | > 30000 nM | > 30000 nM | > 30000 nM | 202 nM | 454 nM | can activate PPRE-Acox-Rluc reporter | Ki ([5]; RH7777 cells expressing LPA1): 4300 nM; Ki [10]: 6600 nM; Ki [11]: 106 nM
6 | Cc1noc(-c2ccc(CSCCC(=O)O)cc2)c1NC(=O)OC(C)c1ccccc1Cl (stereo not drawn) [Ki16425, reference compound] | – | – | – | – | > 30000 nM | 762 nM | > 30000 nM | > 30000 nM | > 30000 nM | 148 nM | 301 nM | can activate PPRE-Acox-Rluc reporter | Ki ([5]; inhibition of LPA-induced Ca2+ transients, RH7777 cells expressing LPA1): 425 nM; Ki [8, 23]: 1740 nM; IC50 [8, 23]: 3380 nM; Ki [13]: 250 nM; Ki [14]: 5600 nM; Ki [15]: 360 nM
7 | CCCCCCCC/C=C\CCCCCCCC(=O)OC[C@@H](COP(O)(O)=S)OC [OMPT] | – | – | – | – | – | – | – | – | – | – | – | can activate PPRE-Acox-Rluc reporter | –
8 | CCCCCCCC/C=C\CCCCCCCC(=O)N[C@@H](COP(=O)(O)O)Cc1ccc(OCc2ccccc2)cc1 [VPC12249, reference compound] | – | – | – | – | > 30000 nM | > 10000 nM | > 30000 nM | > 30000 nM | > 30000 nM | 588 nM | 1190 nM | can activate PPRE-Acox-Rluc reporter; also recorded: exception | effect at LPA1 in words ([5]; RH7777 cells expressing LPA1): weak inhibitor; effect at LPA2 in words ([6]; RH7777 cells expressing LPA2): did not affect LPA signaling; IC50 [8, 23]: > 10000 nM; Ki [13]: 137 nM; Ki [15]: 428 nM
9 | lysophosphatidic acid [LPA] | – | – | – | inhibited; also recorded: dose-dependently inhibit DNA fragmentation | – | – | – | – | – | – | – | – | –
